From US20180153995A1, “USE OF ANTIMICROBIAL POLYMERS FOR RE-SENSITIZATION OF MICROORGANISMS UPON EMERGENCE OF RESISTANCE TO ANTI-MICROBIAL AGENTS” (Technion Research & Development Foundation Limited, priority 2008, published 2018)
Read-outs that look alike come from different tables or passages of the source.

Tests used:
[1] = tested on: E. coli 16327; test: microbe, parasite or virus in culture
[2] = tested on: S. aureus 15877; test: Antibiotic MIC by microdilution with or without sub-MIC polymer; assay type: cell-based, Staphylococcus aureus
[3] = tested on: E. coli K-12 resistant wild type; assay type: cell-based, Escherichia coli; conditions: E. coli AG100 (w.t.)
[4] = tested on: E. coli 16329; assay type: cell-based, Escherichia coli
In short: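 Bacterial suspensions (100 μl) were added to 100 μl of culture medium carrying 2-fold serially diluted antibiotic together with a fraction of the polymer's MIC, or to plain medium as control. Plates were incubated 24 hours at 37° C, and proliferation was read at 620 nm against calibration standards. Starting inoculum was 10^5 bacteria per ml.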

[5] = tested on: S. maltophila 748; test: Antibiotic MIC by microdilution with or without sub-MIC polymer; assay type: cell-based, Stenotrophomonas maltophila
[6] = tested on: E. coli 14182; test: as above; assay type: cell-based, Escherichia coli
[7] = tested on: S. aureus 43300; test: as above; assay type: cell-based, Staphylococcus aureus
[8] = +½ MIC (3.12 μM) C12(5-ene)KKNC12KNH2

CC1(C)S[C@@H]2[C@H](NC(=O)Cc3ccccc3)C(=O)N2[C@H]1C(=O)O [Penicillin G, penicillin G]
Antibiotic MIC [1]: >512 µg/mL | Antibiotic MIC ([1]; E. coli 16327, +¼ MIC (1.6 μM) C12K(KNC12K)2NH2): >512 µg/mL | Antibiotic MIC ([1]; E. coli 16327, +½ MIC (3.12 μM) C12K(KNC12K)2NH2): >512 µg/mL | Antibiotic MIC ([1]; E. coli 16327, +⅓ MIC (2.1 μM) C12K(KNC12K)2NH2): >512 µg/mL | Antibiotic MIC ([1]; E. coli 16327, no polymer (None), Table 9): >512 µg/mL | Antibiotic MIC ([1]; E. coli 16327, no polymer (None), Table 10): >512 µg/mL | Antibiotic MIC ([1]; E. coli 16327, no polymer (None), Table 12): >512 µg/mL | MIC, Alone ([1]; E. coli U16327, antibiotic alone (Table 22)): >512 µg/mL | MIC, ¼ + MIC OAK ([1]; E. coli U16327, with C12K(KNC10K)3NH2 (SEQ ID NO: 10) at ¼ of its MIC): >512 µg/mL | MIC, ½ + MIC OAK ([1]; E. coli U16327, with C12K(KNC10K)3NH2 (SEQ ID NO: 10) at ½ of its MIC): 512 µg/mL | MIC, ⅓ + MIC OAK ([1]; E. coli U16327, with C12K(KNC10K)3NH2 (SEQ ID NO: 10) at ⅓ of its MIC): >512 µg/mL | Antibiotic MIC, None ([1]; E. coli U-16327, antibiotic alone (Table 15)): >512 µg/mL | Antibiotic MIC in presence of C12K(NC8K)7NH2 (SEQ ID NO: 4), +¼ MIC ([1]; E. coli U-16327, polymer at ¼ of its MIC): >512 µg/mL | Antibiotic MIC in presence of C12K(NC8K)7NH2 (SEQ ID NO: 4), +½ MIC ([1]; E. coli U-16327, polymer at ½ of its MIC): 512 µg/mL | Antibiotic MIC in presence of C12K(NC8K)7NH2 (SEQ ID NO: 4), +⅓ MIC ([1]; E. coli U-16327, polymer at ⅓ of its MIC): >512 µg/mL | Antibiotic MIC ([2]; +¼ MIC (1.6 μM) C12(5-ene)KKNC12KNH2): 8 µg/mL | Antibiotic MIC [2, 8]: 8 µg/mL | Antibiotic MIC ([2]; +⅓ MIC (2.1 μM) C12(5-ene)KKNC12KNH2): 8 µg/mL | Antibiotic MIC ([2]; no polymer (None), Table 8): 8 µg/mL | Antibiotic MIC, None ([3]; antibiotic alone (Table 16)): 32 µg/mL | Antibiotic MIC, None ([3]; antibiotic alone (Table 17)): 32 µg/mL | Antibiotic MIC in presence of C12K(NC8K)7NH2 (SEQ ID NO: 4), +¼ MIC ([3]; polymer at ¼ of its MIC (Table 16)): 16 to 32 µg/mL | Antibiotic MIC in presence of C12K(NC8K)7NH2 (SEQ ID NO: 4), +½ MIC ([3]; polymer at ½ of its MIC (Table 16)): 8 µg/mL | Antibiotic MIC in presence of C12K(NC8K)7NH2 (SEQ ID NO: 4), +⅓ MIC ([3]; polymer at ⅓ of its MIC (Table 16)): 8 to 16 µg/mL | Antibiotic MIC in presence of the OAK, +¼ MIC ([3]; the OAK at ¼ of its MIC (Table 17)): 16 µg/mL | Antibiotic MIC in presence of the OAK, +½ MIC ([3]; the OAK at ½ of its MIC (Table 17)): 8 µg/mL | Antibiotic MIC in presence of the OAK, +⅓ MIC ([3]; the OAK at ⅓ of its MIC (Table 17)): 16 µg/mL | Antibiotic MIC [4]: 256 µg/mL | Antibiotic MIC ([4]; E. coli 16329, no polymer (None), Table 10): 512 µg/mL | Antibiotic MIC ([4]; E. coli U-16329, +¼ MIC C12K(NC8K)5NH2): 256 µg/mL | Antibiotic MIC ([4]; E. coli U-16329, +½ MIC C12K(NC8K)5NH2): 256 µg/mL | Antibiotic MIC ([4]; E. coli U-16329, +⅓ MIC C12K(NC8K)5NH2): 256 µg/mL | Antibiotic MIC, None ([4]; E. coli U-16329, antibiotic alone (Table 15)): 256 µg/mL | Antibiotic MIC ([4]; E. coli U-16329, no polymer (None), Table 14): 256 µg/mL | Antibiotic MIC in presence of C12K(NC8K)7NH2 (SEQ ID NO: 4), +¼ MIC ([4]; E. coli U-16329, polymer at ¼ of its MIC): 256 µg/mL | Antibiotic MIC in presence of C12K(NC8K)7NH2 (SEQ ID NO: 4), +½ MIC ([4]; E. coli U-16329, polymer at ½ of its MIC): 128 to 256 µg/mL | Antibiotic MIC in presence of C12K(NC8K)7NH2 (SEQ ID NO: 4), +⅓ MIC ([4]; E. coli U-16329, polymer at ⅓ of its MIC): 128 to 256 µg/mL | Antibiotic MIC ([5]; +¼ MIC (1.6 μM) C12K(KNC12K)3NH2): 512 µg/mL | Antibiotic MIC ([5]; +½ MIC (3.12 μM) C12K(KNC12K)3NH2): 128 µg/mL | Antibiotic MIC ([5]; +⅓ MIC (2.1 μM) C12K(KNC12K)3NH2): 256 to 512 µg/mL | Antibiotic MIC ([5]; no polymer (None), Table 13): 512 µg/mL | Antibiotic MIC ([6]; +½ MIC C12K(NC8K)5NH2): >512 µg/mL | Antibiotic MIC, None ([6]; antibiotic alone (Table 15)): >512 µg/mL | Antibiotic MIC ([6]; no polymer (None), Table 14): >512 µg/mL | Antibiotic MIC in presence of C12K(NC8K)7NH2 (SEQ ID NO: 4), +¼ MIC ([6]; polymer at ¼ of its MIC): >512 µg/mL | Antibiotic MIC in presence of C12K(NC8K)7NH2 (SEQ ID NO: 4), +½ MIC ([6]; polymer at ½ of its MIC): >512 µg/mL | Antibiotic MIC in presence of C12K(NC8K)7NH2 (SEQ ID NO: 4), +⅓ MIC ([6]; polymer at ⅓ of its MIC): >512 µg/mL | Antibiotic MIC ([7]; +¼ MIC (1.6 μM) C14(9-ene)KKNC12KNH2): 4 µg/mL | Antibiotic MIC [7, 8]: 0.03 µg/mL | Antibiotic MIC ([7]; +½ MIC (3.12 μM) C14(9-ene)KKNC12KNH2): 2 µg/mL | Antibiotic MIC ([7]; +⅓ MIC (2.1 μM) C14(9-ene)KKNC12KNH2): 4 µg/mL
